# Source: patent publication US20130189764A1, “SELECTIVE GROWTH MEDIA” (Oxide Limited, priority 2000, published 2013)
# Key:
# Haemophilus influenzae = test: MIC on DMSal agar (Example 15); format: cell-based; conditions: 5 strains
# Acinetobacter baumanii = test: MIC on DMSal agar (Example 15); format: cell-based; conditions: 1 strain
# Procedure: (§1) The experiments were conducted as follows: […], on cooling (but prior to setting) filter-sterilised alaphosphin or AEP were incorporated at final concentrations of 1 mM, 2 mM, 5 mM and 10 mM, and the medium used to pour plates. Control plates were prepared using nutrient agar without alaphosphin or AEP. A single colony of the organism under test was inoculated in 10 ml of nutrient broth and incubated (without agitation) at 37° C. for 4 hours.
# Streptoccocus viridans = test: MIC on DMSal agar (Example 15); format: cell-based; conditions: 1 strain
# Procedure: as §1
# Listeria ivanovii = test: MIC on DMSal agar (Example 15); format: cell-based; conditions: 1 strain
# Procedure: as §1
# Hafnia alvei = test: MIC on DMSal agar (Example 15); format: cell-based; conditions: 1 strain
# Procedure: as §1
# Serratia marcescans = test: MIC on DMSal agar (Example 15); format: cell-based; conditions: 1 strain
# Procedure: as §1
# Proteus mirabilis = test: MIC on DMSal agar (Example 15); format: cell-based; conditions: 1 strain
# Procedure: as §1
# Group F Streptococcus = test: MIC on DMSal agar (Example 15); format: cell-based; conditions: 2 strains
# Procedure: as §1
# Staphylococcus aureus = test: MIC on DMSal agar (Example 15); format: cell-based; conditions: 14 strains
# Procedure: as §1
# Enterococcus faecium = test: MIC on DMSal agar (Example 15); format: cell-based; conditions: 1 strain
# Procedure: as §1
# Shigella = test: MIC on DMSal agar (Example 15); format: cell-based; conditions: 3 strains
# Procedure: as §1
# [1] = tested on: Staphylococcus haemolyticus; test: MIC on DMSal agar (Example 15); format: cell-based; conditions: 1 strain
# Procedure: as §1
# [2] = tested on: Staphylococcus saprophyticus; test: MIC on DMSal agar (Example 15); format: cell-based; conditions: 1 strain
# Procedure: as §1
# Streptococcus agalactiae = test: MIC on DMSal agar (Example 15); format: cell-based; conditions: 5 strains
# Procedure: as §1
# Group A Streptococcus = test: MIC on DMSal agar (Example 15); format: cell-based; conditions: 7 strains
# Procedure: as §1
# Citrobacter freundii = test: MIC on DMSal agar (Example 15); format: cell-based; conditions: 4 strains
# Procedure: as §1
# Aeromonas hydrophilia = test: MIC on DMSal agar (Example 15); format: cell-based; conditions: 1 strain
# Procedure: as §1
# Campylobacter coli = test: MIC on DMSal agar (Example 15); format: cell-based; conditions: 4 strains
# Procedure: as §1
# Campylobacter jejuni = test: MIC on DMSal agar (Example 15); format: cell-based; conditions: 4 strains
# Procedure: as §1
# Klebsiella aerogenes = test: MIC on DMSal agar (Example 15); format: cell-based; conditions: 1 strain
# Procedure: as §1
# Cronobacter sakazakii = test: MIC on DMSal agar (Example 15); format: cell-based; conditions: 1 strain
# Procedure: as §1
# [3] = tested on: Staphylococcus epidermidis; test: MIC on DMSal agar (Example 15); format: cell-based; conditions: 3 strains
# Procedure: as §1
# Group D Streptococcus = test: MIC on DMSal agar (Example 15); format: cell-based; conditions: 2 strains
# Procedure: as §1
# Klebsiella pneumoniae = test: MIC on DMSal agar (Example 15); format: cell-based; conditions: 2 strains
# Procedure: as §1
# Proteus vulgaris = test: MIC on DMSal agar (Example 15); format: cell-based; conditions: 1 strain
# Procedure: as §1
# Escherichia coli = test: MIC on DMSal agar (Example 15); format: cell-based; conditions: 7 strains
# Procedure: as §1
# Listeria innocua = test: MIC on DMSal agar (Example 15); format: cell-based; conditions: 1 strain
# Procedure: as §1
# Enterobacter cloacae = test: MIC on DMSal agar (Example 15); format: cell-based; conditions: 2 strains
# Procedure: as §1
# Escherichia hermanii = test: MIC on DMSal agar (Example 15); format: cell-based; conditions: 1 strain
# Procedure: as §1
# Enterobacter aerogenes = test: MIC on DMSal agar (Example 15); format: cell-based; conditions: 1 strain
# Procedure: as §1
# Burkholderia cepacia = test: MIC on DMSal agar (Example 15); format: cell-based; conditions: 1 strain
# E. coli strains = test: inhibition of E. coli strains on DMSal agar for selective growth of Salmonella (Example 16); format: cell-based, Escherichia coli; conditions: added to DMSal, selective growth of Salmonella strains
# Procedure: (§2) The experiments were conducted as follows: nutrient agar medium was autoclaved and, on cooling (but prior to setting) filter-sterilised alaphosphin or AEP were incorporated at final concentrations of 1 mM, 2 mM, 5 mM and 10 mM, and the medium used to pour plates. Control plates were prepared using nutrient agar without alaphosphin or AEP. A single colony of the organism under test was inoculated in 10 ml of nutrient broth and incubated (without agitation) at 37° C. for 4 hours.
# (§3) Trp-AEP was compared to alaphosphin (Ala-AEP) for selective growth of Salmonella strains on DMSal agar.
# Yersinia enterocolitica = test: MIC on DMSal agar (Example 15); format: cell-based; conditions: 2 strains
# [4] = tested on: Cronobacterr sakazakii 1888; test: MIC / growth in DMSal (Example 16); format: cell-based, Cronobacter sakazakii; conditions: Cronobacterr sakazakii 1888, DMSal
# Procedure: as §2, §3
# Salmonella = conditions: 16 strains, DMSal agar
# Procedure: as §2
# Streptococcus pneumonaie = test: MIC on DMSal agar (Example 15); format: cell-based; conditions: 5 strains
# Serratia marcescens 217 = test: MIC / growth in DMSal (Example 16); format: cell-based; conditions: Serratia marcescens 217, DMSal
# Procedure: as §2, §3
# Escherichia coli 122 = test: MIC / growth in DMSal (Example 16); format: cell-based; conditions: Escherichia coli 122, DMSal
# Procedure: as §2, §3
# Citrobacter freundii 370 = test: MIC / growth in DMSal (Example 16); format: cell-based; conditions: Citrobacter freundii 370, DMSal
# Procedure: as §2, §3
# Escherichia coli 481 = test: MIC / growth in DMSal (Example 16); format: cell-based; conditions: Escherichia coli 481, DMSal
# Procedure: as §2, §3
# [5] = tested on: Salmonella typhimurium 722; test: MIC / growth in DMSal (Example 16); format: cell-based; conditions: Salmonella typhimurium 722, DMSal
# Procedure: as §2, §3
# [6] = tested on: Klebsiella pneumoniae 758; test: MIC / growth in DMSal (Example 16); format: cell-based; conditions: Klebsiella pneumoniae 758, DMSal
# Procedure: as §2, §3
# Salmonella virchow 703 = test: MIC / growth in DMSal (Example 16); format: cell-based; conditions: Salmonella virchow 703, DMSal
# Procedure: as §2, §3
# Escherichia coli 199 = test: MIC / growth in DMSal (Example 16); format: cell-based; conditions: Escherichia coli 199, DMSal
# Procedure: as §2, §3
# Salmonella arizonae 1200 = test: MIC / growth in DMSal (Example 16); format: cell-based; conditions: Salmonella arizonae 1200, DMSal
# Procedure: as §2, §3
# [7] = tested on: Klebsiella pneumoniae 411; test: MIC / growth in DMSal (Example 16); format: cell-based; conditions: Klebsiella pneumoniae 411, DMSal
# Procedure: as §2, §3
# [8] = tested on: Salmonella enteriditis 723; test: MIC / growth in DMSal (Example 16); format: cell-based; conditions: Salmonella enteriditis 723, DMSal
# Procedure: as §2, §3
# Klebsiella aerogenes 323 = test: MIC / growth in DMSal (Example 16); format: cell-based; conditions: Klebsiella aerogenes 323, DMSal
# Procedure: as §2, §3
smiles,measurement,setting,value
"CC(NC(=O)C(N)Cc1c[nH]c2ccccc12)P(=O)(O)O (stereo not shown) [Trp-AEP, tryptophan-AEP]",MIC,Haemophilus influenzae,>128 µg/mL
same,MIC,Acinetobacter baumanii,>256 µg/mL
same,MIC,Streptoccocus viridans,>256 µg/mL
same,MIC,Listeria ivanovii,>128 µg/mL
same,MIC,Hafnia alvei,approximately 1 μg/ml
same,MIC,Hafnia alvei; listed as tryptophan-AEP,1 µg/mL
same,MIC,Serratia marcescans,2 µg/mL
same,MIC,Proteus mirabilis,>128 µg/mL
same,MIC,Group F Streptococcus,>256 µg/mL
same,MIC,Staphylococcus aureus,0.5 to 16 µg/mL
same,MIC,Enterococcus faecium,>256 µg/mL
same,MIC,Shigella,≤ 0.5 µg/mL
same,MIC,[1],2 µg/mL
same,MIC,[2],64 µg/mL
same,MIC,Streptococcus agalactiae,128 µg/mL
same,MIC,Group A Streptococcus,>256 µg/mL
same,MIC,Citrobacter freundii,approximately 1 μg/ml
same,MIC,Citrobacter freundii; listed as tryptophan-AEP,1 to 4 µg/mL
same,MIC,Aeromonas hydrophilia,128 µg/mL
same,MIC,Campylobacter coli,>128 µg/mL
same,MIC,Campylobacter jejuni,>128 µg/mL
same,MIC,Klebsiella aerogenes,8 µg/mL
same,MIC,Cronobacter sakazakii,approximately 1 μg/ml
same,MIC,Cronobacter sakazakii; listed as tryptophan-AEP,1 µg/mL
same,MIC,[3],4 to 16 µg/mL
same,MIC,Group D Streptococcus,16 µg/mL
same,MIC,Klebsiella pneumoniae,2 to 4 µg/mL
same,MIC,Proteus vulgaris,>128 µg/mL
same,MIC,Escherichia coli,≤ 0.5 µg/mL
same,MIC,Escherichia coli; listed as tryptophan-AEP,0.25 to 0.5 µg/mL
same,MIC,Listeria innocua,32 µg/mL
same,MIC,Enterobacter cloacae,4 µg/mL
same,MIC,Escherichia hermanii,0.5 µg/mL
same,MIC,Enterobacter aerogenes,1 µg/mL
same,MIC,Burkholderia cepacia,>256 µg/mL
same,concentration producing equivalent results to Ala-AEP at 1.5 μg/ml,E. coli strains,0.25 µg/mL
same,MIC,Yersinia enterocolitica,4 to 8 µg/mL
same,MIC of Trp-AEP,[4],0.125 µg/mL
same,MIC,Salmonella,2 to 16 µg/mL
same,MIC,Streptococcus pneumonaie,>256 µg/mL
same,MIC of Trp-AEP,Serratia marcescens 217,3 µg/mL
same,MIC of Trp-AEP,Escherichia coli 122,0.25 µg/mL
same,MIC of Trp-AEP,Citrobacter freundii 370,2 µg/mL
same,MIC of Trp-AEP,Escherichia coli 481,0.064 µg/mL
same,MIC of Trp-AEP,[5],3 µg/mL
same,MIC of Trp-AEP,[6],0.064 µg/mL
same,MIC of Trp-AEP,Salmonella virchow 703,3 µg/mL
same,MIC of Trp-AEP,Escherichia coli 199,0.25 µg/mL
same,MIC of Trp-AEP,Salmonella arizonae 1200,2 µg/mL
same,MIC of Trp-AEP,[7],2 µg/mL
same,MIC of Trp-AEP,[8],3 µg/mL
same,MIC of Trp-AEP,Klebsiella aerogenes 323,3 µg/mL
